In publication PMC11856857, “Protease-Resistant, Broad-Spectrum Antimicrobial Peptides with High Antibacterial and Antifungal Activity” (Life, 2025):
Converted amounts (≈) assume the structure as drawn. Where a SMILES comes first, the peptide text is derived from it.

Tests used:
C. albicans ATCC 10231 = type: cell-based, Candida albicans
HaCaT cell line = type: cell-based, human; conditions: 24 h
Experimental: (§1) 3T3 and HaCaT cells were grown in DMEM consisting of 1% pen/strep and 10% FBS. A total of 5 × 10^4 cells were loaded into each well of a 96-well plate and incubated at 37 °C using a 5% CO2 incubator. All samples were measured in triplicate between 0.5–32 µg/mL concentrations and incubated at 37 °C for 24 h in a 5% CO2 incubator. Only cells and Mag-2 were used as negative and positive controls, respectively. After 24 h, cell cytotoxicity was evaluated using a cell proliferation kit (MTT, Roche, Basel, Switzerland) following the kit protocol and analyzed at 550 nm and 690 nm using a microplate reader (Gen5 Synergy HT BioTek). The concentration of peptides that killed 50% of the cells was determined as the IC50 in the cytotoxicity experiments.

3t3 cell line = type: cell-based, mouse; conditions: 24 h
Experimental: as §1

proteinase K = target: T1, proteinase K (Parengyodontium album, UniProt P06873); experiment: Stability toward enzymatic degradation (protease resistance assay); type: in vitro ADME; conditions: peptide 1 mg/mL in TBS (50 mM Tris, 150 mM NaCl, pH 7.6) with 10% DMSO, proteinase K 1 mg/mL (30 U/mg), 37 °C, overnight (also 10 min, 30 min), HPLC at 214 nm
T1 construct: purchased Qiagen
T1 sequence (P06873 106-384): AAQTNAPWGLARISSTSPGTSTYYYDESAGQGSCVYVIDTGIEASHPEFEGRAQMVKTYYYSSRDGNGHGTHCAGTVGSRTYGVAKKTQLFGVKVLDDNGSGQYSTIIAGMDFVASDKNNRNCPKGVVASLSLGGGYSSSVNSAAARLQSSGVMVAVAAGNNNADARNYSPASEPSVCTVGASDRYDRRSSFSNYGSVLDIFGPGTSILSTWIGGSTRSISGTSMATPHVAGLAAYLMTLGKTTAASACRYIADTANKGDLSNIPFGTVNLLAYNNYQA
Experimental: Peptide solutions were prepared at a final concentration of 1 mg/mL in TBS buffer (50 mM Tris, 150 mM NaCl, pH 7.6) including 10% DMSO. The proteinase K solution was adjusted to 1 mg/mL (enzyme activity = 30 U/mg). The peptide solution was then incubated at 37 °C overnight in an orbital shaker. After incubation, the reaction was blocked by adding 1% TFA (100 µL) in water. Peptide solutions with/without the proteinase K enzyme were analyzed at 214 nm using HPLC with an analytic column (AdvanceBio Peptide Plus, 2.1 × 150 mm, 2.7 µm, LC column, Agilent Technologies, Santa Clara, CA, USA) following the linear gradient method (30 min in a range of 5–80% acetonitrile including 0.025% TFA). MIC experiments were repeated to measure biological activities after treating the peptides with proteinase K.

[1] = tested on: resistant Klebsiella pneumoniae (KP) strain; type: cell-based; conditions: resistant (KP) strain
[2] = tested on: methicillin-resistant S. aureus (MRSA)
Experimental: (§2) The antibacterial activity of the bacterial strains was determined using the EUCAST broth microdilution method [24]. Bacterial strains were streaked into the MHA and incubated at 37 °C overnight. The initial doses were adjusted to 1024 µg/mL using a peptide concentration measurement kit (Pierce™ Quantitative Fluorometric Peptide Assay, Thermo Scientific™) and serially diluted to 0.125 µg/mL. All samples were tested in triplicate [25, 26]. The antifungal activity of the Candida species was measured in accordance with the guidelines in CLSI document M27-A3 [27].

Aspergillus flavus (AF) = conditions: clinical strain AF1
Experimental: (§3) Clinically resistant bacterial strains that are classified as “ESKAPE pathogens”, including vancomycin-resistant Enterococcus faecium (VRE), methicillin-resistant S. aureus (MRSA), Klebsiella pneumoniae (KP), Acinetobacter baumannii (AB), P. aeruginosa (PA) by WHO21, multi-drug-resistant Aspergillus flavus (AF), C. albicans (CA), and C. krusei (CK), were provided by Acibadem Labmed.
as §2

[3] = tested on: vancomycin-resistant Enterococcus faecium (VRE)
Experimental: as §3, §2

[4] = tested on: Klebsiella pneumoniae (KP)
Experimental: as §2

[5] = tested on: Acinetobacter baumannii (AB)
Experimental: as §3, §2

[6] = tested on: ESKAPE pathogens, multi-drug-resistant A. flavus (AF), and C. albicans (CA) strains
Experimental: as §3, §2

[7] = tested on: S. aureus (ATCC 29213) inoculated wound
[8] = tested on: S. aureus (ATCC 29213)-infected silk suture wound; experiment: Surgical site infection model; type: in vivo, Wistar rats; conditions: MICX40, 100 µL topically once, 3 h after treatment; p < 0.01
Experimental: Two McFarland S. aureus (ATCC 29213) bacteria were used for suture contamination. The 1.5 cm silk sutures (3-0) were incubated in brain heart infusion (BHI) broth at 37 °C, 150 rpm for 10 min. At the end of the incubation, the sutures were dried on sterile filter paper for 10 min. After drying, one of the sutures was placed in BHI broth, and the bacteria were measured. The number of bacteria obtained from the suture was 7 × 10^5 CFU/mL.
The rats were randomly divided into four groups consisting of seven rats per group and anesthetized with isoflurane. The back of the rat was shaved, sterilized with 70% ethanol, and two 1.5 cm full-thickness wounds were incised centrally on the dorsal midline of the neck. A 1.5 cm S. aureus (ATCC 29213)-infected 3-0 silk suture was placed into the wound incision. A staple was attached to the middle of the incision to prevent the rat from removing the infected suture. After implantation of the suture into the wound, the rats were treated topically once with 100 µL of D-TN6 (MICX40), ampicillin (MICX40), or SF. The animals were decapitated 3 h after treatment. Wound areas were dissected and placed into BHI broth. After homogenization, the bacteria on the wound were counted.

[9] = MICX40 topically twice a day for 10 days, ELISA, means ± S.E.M.

Experimental for C.albicans (CA): as §2
Experimental for C.krusei (CK): as §2
Experimental for P. aeruginosa (PA): as §2

With `CC(C)C[C@@H](NC(=O)[C@H](N)CCCNC(=N)N)C(=O)N[C@H](CC(C)C)C(=O)N[C@H](CCCNC(=N)N)C(=O)N[C@H](CC(C)C)C(=O)N[C@H](CC(C)C)C(=O)N[C@H](CC(C)C)C(=O)N[C@H](CCCNC(=N)N)C(=O)N[C@H](CC(C)C)C(=O)N[C@H](CC(C)C)C(=O)N[C@H](CCCNC(=N)N)C(N)=O` [D-TN6] (HELM PEPTIDE1{[dR].[dL].[dL].[dR].[dL].[dL].[dL].[dR].[dL].[dL].[dR].[am]}$$$$V2.0) the “MIC C. albicans” value (C. albicans ATCC 10231) was 0.5 µg/mL (≈ 0.349 µM), the “IC50 HaCaT” value (HaCaT cell line) was 19.64 µg/mL and the “IC50 3t3” value (3t3 cell line) was 17.58 µg/mL. For the same compound, the “Stability toward proteinase K (HPLC)” value (proteinase K) was “resistant to proteinase K”, the “Stability toward proteinase K (HPLC)” value (proteinase K; listed as D- TN6) was “highly protease-resistant” and the “MIC KP1” value [1] was 0.5 µg/mL (≈ 0.349 µM). The “MIC KP2” value [1] was 1 µg/mL (≈ 0.697 µM), the “MIC KP8” value [1] was 1 µg/mL (≈ 0.697 µM) and the “MIC KP9” value [1] was 0.5 µg/mL (≈ 0.349 µM). For the same compound, the “MIC KP13” value [1] was 0.5 µg/mL (≈ 0.349 µM), the “MIC KP22” value [1] was 0.5 µg/mL (≈ 0.349 µM) and the “MIC KP28” value [1] was 1 µg/mL (≈ 0.697 µM). The “MIC KP29” value [1] was 2 µg/mL (≈ 1.39 µM), the “MIC KP35” value [1] was 8 µg/mL (≈ 5.58 µM) and the “MIC KP40” value [1] was 2 µg/mL (≈ 1.39 µM). For the same compound, the “MIC KP41” value [1] was 4 µg/mL (≈ 2.79 µM), the “MIC KP42” value [1] was 2 µg/mL (≈ 1.39 µM) and the “MIC KP46” value [1] was 2 µg/mL (≈ 1.39 µM). For the same compound, the “MIC KP52” value [1] was 2 µg/mL (≈ 1.39 µM), the “MIC MRSA 1” value ([2]; clinical strain MRSA 1) was 0.5 µg/mL (≈ 0.349 µM) and the “MIC MRSA 2” value ([2]; clinical strain MRSA 2) was 1 µg/mL (≈ 0.697 µM). For the same compound, the “MIC MRSA 3” value ([2]; clinical strain MRSA 3) was 1 µg/mL (≈ 0.697 µM), the “MIC AF1” value (Aspergillus flavus (AF)) was 4 µg/mL (≈ 2.79 µM) and the “MIC CA 1” value (C.albicans (CA); clinical strain CA 1) was 2 µg/mL (≈ 1.39 µM). For the same compound, the “MIC CA 2” value (C.albicans (CA); clinical strain CA 2) was 2 µg/mL (≈ 1.39 µM), the “MIC CA 3” value (C.albicans (CA); clinical strain CA 3) was 1 µg/mL (≈ 0.697 µM) and the “MIC VRE 1” value ([3]; clinical strain VRE 1) was 0.25 µg/mL (≈ 0.174 µM). For the same compound, the “MIC VRE 2” value ([3]; clinical strain VRE 2) was 0.25 µg/mL (≈ 0.174 µM), the “MIC CK 1” value (C.krusei (CK); clinical strain CK 1) was 2 µg/mL (≈ 1.39 µM) and the “MIC CK 2” value (C.krusei (CK); clinical strain CK 2) was 2 µg/mL (≈ 1.39 µM). For the same compound, the “MIC CK 3” value (C.krusei (CK); clinical strain CK 3) was 2 µg/mL (≈ 1.39 µM), the “MIC KP1” value [4] was 4 µg/mL (≈ 2.79 µM) and the “MIC KP2” value [4] was 2 µg/mL (≈ 1.39 µM). For the same compound, the “MIC KP 3” value [4] was 1 µg/mL (≈ 0.697 µM), the “MIC KP 4” value [4] was 1 µg/mL (≈ 0.697 µM) and the “MIC range against clinical A. baumannii strains” value ([5]; AB) was 0.25 to 2 µg/mL. The “MIC AB1” value ([5]; clinical strain AB1) was 0.25 µg/mL (≈ 0.174 µM), the “MIC AB2” value ([5]; clinical strain AB2) was 2 µg/mL (≈ 1.39 µM) and the “MIC PA1” value (P. aeruginosa (PA)) was 1 µg/mL (≈ 0.697 µM). The “MIC PA2” value (P. aeruginosa (PA)) was 1 µg/mL (≈ 0.697 µM), the “MIC PA3” value (P. aeruginosa (PA)) was 0.5 µg/mL (≈ 0.349 µM) and the “MIC PA4” value (P. aeruginosa (PA)) was 1 µg/mL (≈ 0.697 µM). For the same compound, the “MIC range against seven species resistant to current antibiotics” value [6] was 0.25 to 4 µg/mL, the “Serum CRP” value ([7]; rat, in vivo) was “N” and the “indicators of toxicity by ALT, AST, TB, and CRP levels in serum” value ([7]; rat, in vivo) was “did not exhibit any indicators of toxicity”. The “toxic alterations of liver tissue hepatocytes and stratified epithelium” value ([7]; rat, in vivo) was “did not exhibit any toxic alterations”.

`CC1(C)S[C@@H]2[C@H](NC(=O)[C@H](N)c3ccccc3)C(=O)N2[C@H]1C(=O)O` [ampicillin] was tested, and the “bacterial counts in wound versus control group” value [8] was “significantly reduced”, the “IL1-β, liver” value [7, 9] was 705.7 ± 87.07 and the “IL1-β, serum” value [7, 9] was 826.9 ± 105.5. For the same compound, the “IL1-β, wound tissue” value [7, 9] was 1779 ± 45.54, the “IL-6, liver” value [7, 9] was 35.51 ± 2.82 and the “IL-6, serum” value [7, 9] was 50.02 ± 2.04. For the same compound, the “IL-6, wound tissue” value [7, 9] was 77.60 ± 4.77, the “TNF-α, liver” value [7, 9] was 107.0 ± 8.14 and the “TNF-α, serum” value [7, 9] was 212.2 ± 9.02. For the same compound, the “TNF-α, wound tissue” value [7, 9] was 225.4 ± 12.19, the “wound healing by day 4 versus control group” value ([7]; MICX40 topically twice a day, p < 0.01) was “significantly accelerated” and the “Serum ALT” value ([7]; rat, in vivo) was 52.4 ± 3 U/L. The “Serum AST” value ([7]; rat, in vivo) was 161.6 ± 12.8 U/L, the “Serum CRP” value ([7]; rat, in vivo) was “N” and the “Serum TB” value ([7]; rat, in vivo) was 0.1 mg/dL. The “indicators of toxicity by ALT, AST, TB, and CRP levels in serum” value ([7]; rat, in vivo) was “did not exhibit any indicators of toxicity”.
